The test system of series [1] is SARS-CoV-2. The series is classed as cell-based.
For series [2], the target named is T1, papain-like protease (PLpro) of SARS-CoV-2 (Severe acute respiratory syndrome coronavirus 2, UniProt P0DTD1).
T1 construct: They are the papain-like proteases (PLpro), encoded within nsp3; purchased R&D biosystems E-611-050
It counts as biochemical.

The test system of series [3] is SARS-CoV-2. Briefly: qRT-PCR of viral RNA from SARS-CoV-2 infected Vero-B4 cells. It counts as cell-based. To be noted: 10 μM, 3 d treatment, 3 independent experiments; compared with 10 μM chloroquine or hydroxychloroquine. The method, then:
Therefore, virus-containing samples were quantified by real-time PCR AgPath-ID One-Step RT-PCR Kit from Ambion (Cat: 4387424) allowing reverse transcription, cDNA synthesis and PCR amplification in a single step. Samples were analyzed by 7500 software v2.3 (applied Bioscience). PCR primers were used according to 44: RdRp_fwd: 5′-GTG-ARA-TGG-TCA-TGT-GTG-GCG-G-3′ and RdRp_rev 5′-CAR-ATG-TTA-AAS-ACA-CTA-TTA-GCA-TA-C-3′. Probe was 5′-CAG-GTG-GAA-/ZEN/CCT-CAT-CAG-GAG-ATG-C-3′ (Label: FAM/IBFQ Iowa Black FQ). As positive control a specific target for E and RdRp gen of SARS-CoV2 was used and made by Integrated DNA Technologies. Control: 5′-TAA-TAC-GAC-TCA-CTA-TAG-GGT-ATT-GAG-TGA-AAT-GGT-CAT-GTG-TGG-CGG-TTC-ACT-ATA-TGT-TAA-ACC-AGG-TGG-AAC-CTC-ATC-AGG-AGA-TGC-CAC-AAC-TGC-TTA-TGC-TAA-TAG-TGT-TTT-TAA-CAT-TTG-GAA-GAG- ACA-GGT-ACG-TTA-ATA-GTT-AAT-AGC-GTA-CTT-CTT-TTT-CTT-GCT-TTC-GTG-GTA-TTC-TTG-CTA-GTT-ACA-CTA-GCC-ATC-CTT-ACT-GCG-CTT-CGA-TTG-TGT-GCG-TAC-TGC-TGC-AAT-ATT-GTT-3′. The annealing temperature was 60° C. The experimental procedure containing the infection, treatment and isolation of virions was the same as described for the Western blot analysis. The evaluation of qRT-PCR analysis clearly confirmed the results of the Western blot experiments.

In series [4] the test system is Vero-B4 cells. To be noted: WST assay, 3 days.

The structures appear in SMILES notation. “Also recorded” adds a separate entry of the source.

Here are results for two compounds from patent publication US20230087388A1, “INHIBITORS OF HUMAN DEUBIQUITINASES FOR THE TREATMENT OF CORONAVIRAL INFECTIONS” (Immunologik GmbH, priority 2020, published 2023).

For the compound `CC(=O)c1cc([N+](=O)[O-])c(Sc2cccc(Cl)c2Cl)s1` [P5091, 1-[5-[(2,3-dichlorophenyl)thio]-4-nitro-2-thienyl]-ethanone], in series [1] (1.25 μM P5091, 3 d treatment, 3 independent experiments, untreated = 100%), the “reduction in the release of SARS-CoV-2 proteins (densitometric analysis)” value is recorded as 90%. The “release of SARS-CoV-2 proteins / replication of SARS-CoV-2” value in series [1] (5 μM P5091, infected Vero-B4 cells, 3 d treatment) is “complete block; also recorded: nearly completely inhibit”. Also, in series [1] (different concentrations of P5091, 3 d treatment), the “release of viral proteins in Western Blot” value was “dose-dependent decrease”. Also, in series [2] (20 nM recombinant PLpro, ISG15-AMC substrate, 30 min pretreatment, 120 min readout, PR-619 1.25-10 μM, P5091 1.5-6 μM), the “inhibitory effect on SARS-CoV-2 PLpro activity” value was “dose dependent reduction; also recorded: direct inhibitory action”. Besides, the “reduction of activity of PLpro from SARS-CoV-2 (AUC)” value in series [2] (6 μM P5091, n=3) stood at 80%.
Take `N#CSc1cc(SC#N)c(N)nc1N` [PR-619, 2,6-diaminopyridine-3,5-bis(thiocyanate)]: the “inhibition of replication of SARS-CoV-2 in infected Vero-B4 cells” value in series [1] (10 μM PR-619) is given as “broadly inhibit”. In series [1] (10 μM PR-619, infected Vero-B4 cells, 3 dpi), the “SARS-CoV-2 proteins in Western Blot, virus and cell fraction” value was “clear reduction”. In addition, in series [1] (10 μM, 3 d treatment, 3 independent experiments, compared with 10 μM chloroquine or hydroxychloroquine), the “generation of SARS-CoV-2 proteins, densitometric evaluation (nucleoprotein virus fraction, spike S1 cell fraction)” value is “significantly inhibited”. For the same compound, in series [3], the “amount of viral RNA (qRT-PCR)” value was “significantly reduced”. Moreover, the “concentration at which a clear toxic effect started” value in series [4] is on record as “over 20 μM”.
